According to ChEMBL document CHEMBL5584307, “Discovery of a Potent and Orally Bioavailable Xanthine Oxidase/Urate Transporter 1 Dual Inhibitor as a Potential Treatment for Hyperuricemia and Gout” (J Med Chem, 2024):

Assays:
[1] = target: T1, Solute carrier family 22 member 12 (Homo sapiens, UniProt Q96S37); assay: Inhibition of URAT1 (unknown origin) by absorbance based assay
T1 sequence (Q96S37 whole entry): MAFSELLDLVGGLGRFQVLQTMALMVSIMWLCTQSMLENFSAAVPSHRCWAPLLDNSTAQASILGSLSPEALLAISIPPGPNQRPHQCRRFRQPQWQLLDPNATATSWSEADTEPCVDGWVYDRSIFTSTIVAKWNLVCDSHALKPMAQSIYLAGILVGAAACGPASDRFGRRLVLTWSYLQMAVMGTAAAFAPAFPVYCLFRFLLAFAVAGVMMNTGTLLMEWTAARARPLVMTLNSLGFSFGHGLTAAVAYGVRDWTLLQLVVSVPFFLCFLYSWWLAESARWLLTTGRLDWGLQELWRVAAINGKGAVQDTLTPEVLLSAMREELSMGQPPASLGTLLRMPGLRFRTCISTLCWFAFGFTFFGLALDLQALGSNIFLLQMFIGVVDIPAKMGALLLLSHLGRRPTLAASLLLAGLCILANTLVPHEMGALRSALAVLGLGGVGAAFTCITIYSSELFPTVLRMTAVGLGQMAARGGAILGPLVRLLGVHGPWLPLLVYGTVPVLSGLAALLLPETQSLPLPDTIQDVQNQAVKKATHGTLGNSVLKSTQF

[2] = Half life in overnight-fasted Sprague-Dawley rat at 5 mg/kg, po measured upto 24 hrs by LC-MS/MS analysis; type: ADME, organism-based; conditions: in vivo
[3] = Cmax in overnight-fasted Sprague-Dawley rat at 5 mg/kg, po measured upto 24 hrs by LC-MS/MS analysis; type: ADME, organism-based; conditions: in vivo
[4] = AUC (last) in overnight-fasted Sprague-Dawley rat at 5 mg/kg, po measured upto 24 hrs by LC-MS/MS analysis; type: ADME, organism-based; conditions: in vivo
[5] = AUC (last) in overnight-fasted Sprague-Dawley rat at 1 mg/kg, iv measured upto 24 hrs by LC-MS/MS analysis; type: ADME, organism-based; conditions: in vivo
[6] = Clearance in overnight-fasted Sprague-Dawley rat at 1 mg/kg, iv measured upto 24 hrs by LC-MS/MS analysis; type: ADME, organism-based; conditions: in vivo
[7] = Volume of distribution at steady state in overnight-fasted Sprague-Dawley rat at 5 mg/kg, po or 1 mg/kg, iv measured upto 24 hrs by LC-MS/MS analysis; type: ADME, organism-based; conditions: in vivo
[8] = Oral bioavailability in overnight-fasted Sprague-Dawley rat at 5 mg/kg measured upto 24 hrs by LC-MS/MS analysis; type: ADME, organism-based; conditions: in vivo
[9] = target: T1, Solute carrier family 22 member 12; assay: Inhibition of URAT1 (unknown origin) at 10 uM by absorbance based assay
Sapajus apella [10] = assay: Urate lowering effect in Tufted capuchin monkey assessed as serum xanthine level at 2 mg/kg/day, po qd for 3 days consecutively; type: functional; conditions: time 3 day
Sapajus apella [11] = assay: Urate lowering effect in Tufted capuchin monkey assessed as urine xanthine level at 2 mg/kg/day, po qd for 3 days consecutively; type: functional; conditions: time 3 day
Sapajus apella [12] = conditions: dose 2.0 mg/kg/day, route po, time 3.0 day
[13] = target: T2, Xanthine dehydrogenase/oxidase (Homo sapiens, UniProt P47989); assay: Inhibition of xanthine oxidase (unknown origin) by absorbance based assay
T2 sequence (P47989 whole entry): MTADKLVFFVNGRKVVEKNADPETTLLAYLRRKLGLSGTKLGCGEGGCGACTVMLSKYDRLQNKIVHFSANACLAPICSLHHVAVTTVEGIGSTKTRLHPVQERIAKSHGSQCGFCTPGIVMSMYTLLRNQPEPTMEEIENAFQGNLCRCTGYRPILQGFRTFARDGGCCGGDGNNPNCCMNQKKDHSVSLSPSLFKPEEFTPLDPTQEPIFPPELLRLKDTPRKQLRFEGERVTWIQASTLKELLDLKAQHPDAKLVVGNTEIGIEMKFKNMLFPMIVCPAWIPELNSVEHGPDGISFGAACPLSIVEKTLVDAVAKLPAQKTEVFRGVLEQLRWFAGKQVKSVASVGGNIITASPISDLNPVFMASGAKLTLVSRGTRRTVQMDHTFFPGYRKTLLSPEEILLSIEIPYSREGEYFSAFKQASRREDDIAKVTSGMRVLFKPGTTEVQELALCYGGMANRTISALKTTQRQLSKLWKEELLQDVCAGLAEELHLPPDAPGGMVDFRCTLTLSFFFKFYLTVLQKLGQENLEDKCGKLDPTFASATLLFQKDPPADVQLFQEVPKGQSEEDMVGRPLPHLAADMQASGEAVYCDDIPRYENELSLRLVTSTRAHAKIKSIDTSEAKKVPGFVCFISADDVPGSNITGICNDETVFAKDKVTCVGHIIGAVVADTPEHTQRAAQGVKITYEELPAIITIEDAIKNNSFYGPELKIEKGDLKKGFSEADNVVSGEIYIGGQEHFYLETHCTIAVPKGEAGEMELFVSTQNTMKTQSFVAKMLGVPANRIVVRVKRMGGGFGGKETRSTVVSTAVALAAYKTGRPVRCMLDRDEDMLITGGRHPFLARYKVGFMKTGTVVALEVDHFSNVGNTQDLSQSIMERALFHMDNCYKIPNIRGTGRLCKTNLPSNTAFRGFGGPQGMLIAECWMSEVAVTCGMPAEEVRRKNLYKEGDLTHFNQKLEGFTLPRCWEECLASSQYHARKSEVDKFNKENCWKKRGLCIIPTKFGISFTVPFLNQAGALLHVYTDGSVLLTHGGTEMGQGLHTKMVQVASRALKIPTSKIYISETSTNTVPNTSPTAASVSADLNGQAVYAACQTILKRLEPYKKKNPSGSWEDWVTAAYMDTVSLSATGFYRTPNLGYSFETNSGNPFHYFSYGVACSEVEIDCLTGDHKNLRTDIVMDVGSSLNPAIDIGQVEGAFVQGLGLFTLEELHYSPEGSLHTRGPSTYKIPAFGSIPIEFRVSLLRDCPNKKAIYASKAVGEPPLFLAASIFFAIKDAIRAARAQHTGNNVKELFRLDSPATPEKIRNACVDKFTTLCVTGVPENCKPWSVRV

[14] = target: T2, Xanthine dehydrogenase/oxidase; assay: Inhibition of xanthine oxidase (unknown origin) at 10 uM by absorbance based assay
Sapajus apella [15] = assay: Urate lowering effect in Tufted capuchin monkey assessed as fraction excretion of uric acid at 30 mg/kg/day, po qd for 3 days consecutively relative to control; type: functional; conditions: time 3 day
Sapajus apella [16] = conditions: dose 30.0 mg/kg/day, route po, time 3.0 day

In the case of `N#Cc1cc(-c2ccc(C(=O)O)c(O)c2)c2oc(Cl)cc2c1`, the IC50 [1] is reported as 37 nM, the half-life [2] is reported as 3.05 h and the Cmax [3] is reported as 3700 ng/mL. The AUC(0-t) at 24 h [4] was 28100 ng·h/mL, the AUC(0-t) at 24 h [5] was 5480 ng·h/mL and the clearance [6] was 2.77 mL/min/kg. For the same molecule, the Vdss [7] was 0.4 L/kg and the bioavailability [8] was 93.9%.
With `Cc1nc(-c2ccc(OCC(C)C)c(C#N)c2)sc1C(=O)O` [FEBUXOSTAT] the “inhibition (INH)” value [9] was “Not Active”, the Activity (Sapajus apella [10]) was 6.61 µg·h/mL and the Activity (Sapajus apella [11]) was 32.1 µg·h/mL. It also gave an AUC (Sapajus apella [12]) of 478000 ng·h/mL.
With `N#Cc1cc(-c2ccc(C(=O)O)c(O)c2)c2ncsc2c1` the IC50 [13] was 101 nM and the IC50 [1] was 3640 nM.
`COc1cc(-c2cc(C#N)cc3ccoc23)ccc1C(=O)O` gave an IC50 [13] of over 10000 nM and an IC50 [1] of 3750 nM.
For `N#Cc1cc(-c2ccc(C(=O)O)cc2)c2occc2c1`, the IC50 [13] was 591 nM and the IC50 [1] was 598 nM.
Work on `N#Cc1cc(-c2ccc(C(=O)O)c(O)c2)c2ccsc2c1` yielded a half-life [2] of 1.86 h, a Cmax [3] of 2050 ng/mL and an AUC(0-t) at 24 h [4] of 2430 ng·h/mL. For the same molecule, the AUC(0-t) at 24 h [5] was 902 ng·h/mL, the clearance [6] was 18.6 mL/min/kg and the Vdss [7] was 0.4 L/kg. For the same molecule, the bioavailability [8] was 55.8%.
In the case of `N#Cc1cc2c(c(-c3ccc(C(=O)O)c(O)c3)c1)OCC2`, the IC50 [13] is reported as 46 nM and the IC50 [1] is reported as 352 nM.
Work on `Cc1cc2cc(C#N)cc(-c3ccc(C(=O)O)c(O)c3)c2o1` yielded an IC50 [13] of 61 nM and an IC50 [1] of 623 nM.
For `N#Cc1cc(-c2ccc(C(=O)O)c(O)c2)c2occ(C(F)(F)F)c2c1`, the IC50 [13] was 8 nM and the IC50 [1] was 1650 nM.
With `CCc1oc2ccccc2c1C(=O)c1cc(Br)c(O)c(Br)c1` [BENZBROMARONE] the “inhibition (INH)” value [14] was “Not Active”, the Activity (Sapajus apella [15]) was 42.3% and the AUC (Sapajus apella [16]) was 894000 ng·h/mL.
In the case of `O=C(O)c1ccc(-c2cc(C(F)(F)F)cc3ccoc23)cc1O`, the IC50 [13] is reported as 388 nM and the IC50 [1] is reported as 3190 nM.
`N#Cc1cc(-c2ccc(C(=O)O)c(O)c2)c2oc(C(F)(F)F)cc2c1` gave an IC50 [13] of 347 nM and an IC50 [1] of 104 nM.
Molecule `N#Cc1cc(-c2ccc(C(=O)O)c(O)c2)c2ccoc2c1` has an IC50 [13] of 39 nM, a half-life [2] of 2.66 h and a Cmax [3] of 6550 ng/mL. For the same molecule, the AUC(0-t) at 24 h [4] was 43200 ng·h/mL, the AUC(0-t) at 24 h [5] was 8530 ng·h/mL and the clearance [6] was 1.93 mL/min/kg. It also gave a Vdss [7] of 0.155 L/kg and a bioavailability [8] of 99.5%.
`CC(C)COc1ccc(-c2ccc(C(=O)O)c(O)c2)cc1C#N` gave an IC50 [13] of 18 nM and an IC50 [1] of 8300 nM.
For `N#Cc1cc(-c2ccc(C(=O)O)c(O)c2)c2sccc2c1`, the IC50 [13] was 133 nM and the IC50 [1] was 444 nM.
`N#Cc1cc(-c2ccc(C(=O)O)c(O)c2)c2occc2c1` showed a half-life [2] of 3.45 h, a Cmax [3] of 6830 ng/mL and an AUC(0-t) at 24 h [4] of 44400 ng·h/mL. The AUC(0-t) at 24 h [5] was 6860 ng·h/mL, the clearance [6] was 2.4 mL/min/kg and the Vdss [7] was 0.399 L/kg. For the same molecule, the bioavailability [8] was 131%.
In the case of `N#Cc1cccc(-c2ccc(C(=O)O)c(O)c2)c1`, the IC50 [13] is reported as 37 nM and the IC50 [1] is reported as 2200 nM.
Molecule `CC(C)COc1ccc(-c2cccc(O)c2C(=O)O)cc1C#N` has an IC50 [13] of over 10000 nM and an IC50 [1] of over 10000 nM.
`N#Cc1cc2c(c(-c3ccc(C(=O)O)c(O)c3)c1)CCC2` showed an IC50 [13] of 560 nM and an IC50 [1] of 107 nM.
Molecule `N#Cc1cc(-c2ccc(C(=O)O)c(O)c2)c2cc[nH]c2c1` has an IC50 [13] of 27 nM and an IC50 [1] of over 10000 nM.
